Common to all, as to type: cell-based
One assay has as its system HIV-strain pNL4-3. Nature of the assay: HIV-1 replication in acutely infected PBMC (CA-p24 ELISA). The conditions noted are these: 2.8 μM. The method, then: Experiments were conducted to assess the effect of the compounds of the instant invention on HIV-1 replication in acutely infected T cells. Peripheral blood mononuclear cells (PBMC) were obtained from non-HIV-1, non-HIV-2, non-Hepatitis B/C infected donors, stimulated with phytohemagglutinin-M and grown in culture media supplemented with 10 U/mL interleukin-2. The activated PBMC were infected with […] (Low Titre) and 100 ng (High Titre) of CA-p24 equivalents of the HIV-strain pNL4-3. Cells were infected for two hr after which, the virus was removed and the cells were washed with culture media. Equivalent numbers of cells were seeded into 24 well plates and compounds were added to the cultured cells that included: TPA at 8 riM and 80 nM, Ingenol at 280 nM, PEP003 at 500 nM, 50 nM and 5 nM, or PEP004 at dilutions of 1×10^4 and 1×10^5 from the stock (final concentrations). In addition, uninfected activated PBMC were grown in the presence of TPA (80 nM), Ingenol (280 nM), PEP003 (500 nM) and PEP004 (1×10^4 dilution). Other cultures were neither infected nor treated with any compound, or infected but not treated with any compound. Supernatant was removed from each culture at day 0, 3, 7, and 10. The amount of HIV-1 CA-p24 was determined using a commercially available ELISA assay. Three independent experiments were performed.
Background: In an ELISA, binding on a coated surface is turned into a signal by an enzyme label.

The subject of another assay is adenovirus 5. Nature of the assay: Adenovirus 5 replication in human melanoma cells. To be noted: 295 ng/mL; 2 days. An excerpt: Human melanoma cells were infected with ten-fold dilutions of adenovirus 5 in culture, treated with dilutions of PEP005, PEP006, PEP008 and PEP010 and adenovirus replication determined 2 days later by immunhistochemical detection of virus-replicating cells.

For assay [1], the system named is peripheral blood mononuclear cells (PBMCs). Nature of the assay: Phagocytosis with fluorescent beads. To be noted: whole heparinized blood, 30 min at 37° C. Here is the method: Phagocytosis by peripheral blood mononuclear cells (PBMCs) was assayed (Steinkamp et al., 1982) using 1 μm Fluoresbrite™ yellow-green fluorescent latex spheres (Polysciences, Inc., Warrington, Pa.). A sample of whole, heparinized blood was treated with drug and 5×10E7 fluorescent latex beads in 10 μL of PBS added per mL of suspension. Cells were incubated and maintained in suspension for 30 min by means of a shaker platform at 37° C. The stirnulated and non-stimulated samples were then lysed to isolate PBMCs. The PBMCs were run on the flow cytometer measuring FITC (excitation at 488 nm, emission at 525±20 nm), gated for fluorescence (phagocytosed spheres) and light scatter (cell size).

Consider `CC1=C[C@]23C(=O)[C@@H](C=C(CO)[C@@H](O)[C@]2(O)[C@H]1O)[C@H]1[C@@H](C[C@H]3C)C1(C)C` [Ingenol], for which the “reduction of HIV-1 replication rate” value with HIV-strain pNL4-3 is “approximately 35%”.

For the compound `C/C=C(/C)C(=O)O[C@H]1C(C)=C[C@]23C(=O)[C@@H](C=C(CO)[C@@H](O)[C@]12O)[C@H]1[C@@H](C[C@H]3C)C1(C)C` [PEP006, Ingenol-3-angelate], the “increase of adenovirus replication (number of stained cells)” value in the assay on adenovirus 5 was 256%. The “stimulation of phagocytosis of fluorescent latex beads” value in assay [1] is reported as “stimulate phagocytosis in PBMCs”.

Source of the values: patent publication US20030195168A1, “Therapeutic agents - III” (priority 2000, published 2003).
